Reference: EP0923530B1, “INHIBITION OF MATRIX METALLOPROTEASES BY SUBSTITUTED BIARYL OXOBUTYRIC ACIDS” (Bayer Corporation, priority 1996, dated 1997)

Columns and labels:
MMP-2 = MMP-2 (Homo sapiens, UniProt P08253); experiment: biochemical
MMP-9 = target: T1, MMP-9 (Homo sapiens, UniProt P14780); experiment: P218 quenched fluorescence assay (MMP Microfluorometric Profiling Assay), MMP-9; format: biochemical; settings: 6 µM P218 substrate, 25 min at 37°C, pH 6.5; read-out: MMP-9 Fluorogenic IC50
T1 construct: made in house
T1 sequence (P14780 107-707 limits assumed): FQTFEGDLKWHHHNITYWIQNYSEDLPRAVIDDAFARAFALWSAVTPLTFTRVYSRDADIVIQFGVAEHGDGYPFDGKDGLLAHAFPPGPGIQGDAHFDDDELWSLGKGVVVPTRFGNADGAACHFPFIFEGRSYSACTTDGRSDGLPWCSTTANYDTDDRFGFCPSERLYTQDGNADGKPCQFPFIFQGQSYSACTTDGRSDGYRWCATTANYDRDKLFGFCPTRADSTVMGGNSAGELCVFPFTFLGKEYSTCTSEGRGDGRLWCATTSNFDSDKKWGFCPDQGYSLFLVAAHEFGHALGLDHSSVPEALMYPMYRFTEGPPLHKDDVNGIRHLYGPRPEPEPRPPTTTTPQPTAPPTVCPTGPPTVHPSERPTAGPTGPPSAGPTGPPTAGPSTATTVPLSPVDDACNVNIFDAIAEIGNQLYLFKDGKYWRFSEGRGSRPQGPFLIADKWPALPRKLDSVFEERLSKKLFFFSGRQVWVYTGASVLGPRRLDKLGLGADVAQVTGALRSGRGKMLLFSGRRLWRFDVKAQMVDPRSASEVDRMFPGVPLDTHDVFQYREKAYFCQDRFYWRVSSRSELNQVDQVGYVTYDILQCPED
Text: (§1) The P218 quenched fluorescence assay (Microfluorometric Profiling Assay) is a modification of that originally described by Knight, et al.. FEBS Lett. 296, 263 (1992) for a related substance and a variety of matrix metalloproteinases (MMPs) in cuvettes. The assay was run with each invention compound and the three MMPs, MMP-3, MMP-9 and MMP-2, analyzed in parallel, adapted as follows for a 96-well microtiter plate and a Hamilton AT® workstation. P218 Fluorogenic Substrate: P218 is a synthetic substrate containing a 4-acetyl-7-methoxycoumarin ( MCA) group in the N-terminal position and a 3-[2, 4-dinitrophenyl]-L-2,3-diaminopropionyl (DPA) group internally. This is a modification of a peptide reported by Knight (1992) that was used as a substrate for matrix metalloproteinases. Once the P218 peptide is cleaved (putative clip site at the Ala-Leu bond), the fluorescence of the MCA group can be detected on a fluorometer with excitation at 328 nm and emission at 393 nm. P218 is currently being produced BACHEM exclusively for Bayer. P218 has the structure: [formula]
Recombinant Human Pro-MMP-9: Human pro-gelatinase B (pro-MMP-9) derived from U937 cDNA as described by Wilhelm, et al. J. Biol. Chem. 264, 17213 (1989) was expressed as the full-length form using a baculovirus protein expression system. The pro-enzyme was purified using methods previously described by Hibbs, et al. J. Biol. Chem. 260, 2493 (1984).
Activation of Pro-MMP-9: […] 20 µg/mL in 50 mM Tris at pH 7.4, 10mM CaCl2, 150 mM NaCl, and 0.005% Brij-35 (MMP-9 activation buffer) was activated by incubation with 0.5 mM p-aminophenylmercuric acetate (APMA) for 3.5 h at 37°C. The enzyme was dialyzed against the same buffer to revmove the APMA.
(§2) Hamiltion Microlab AT Plus: The MMP-Profiling Assay is performed robotically on a Hamilton MicroLab AT Plus®. […]
(§3) Millipore Cytofluor II. Following incubation, the plate was read on a Cytofluor II fluorometric plate reader with excitation at 340 nm and emission at 395 nm with the gain set at 80. […]

MMP-3 = target: T2, MMP-3 (Homo sapiens, UniProt P08254); experiment: P218 quenched fluorescence assay (MMP Microfluorometric Profiling Assay), MMP-3; format: biochemical; settings: 6 µM P218 substrate, 25 min at 37°C, pH 6.5; read-out: MMP-3 Fluorogenic IC50
T2 construct: made in house; host or cells: CHO cells
T2 sequence (P08254 100-477): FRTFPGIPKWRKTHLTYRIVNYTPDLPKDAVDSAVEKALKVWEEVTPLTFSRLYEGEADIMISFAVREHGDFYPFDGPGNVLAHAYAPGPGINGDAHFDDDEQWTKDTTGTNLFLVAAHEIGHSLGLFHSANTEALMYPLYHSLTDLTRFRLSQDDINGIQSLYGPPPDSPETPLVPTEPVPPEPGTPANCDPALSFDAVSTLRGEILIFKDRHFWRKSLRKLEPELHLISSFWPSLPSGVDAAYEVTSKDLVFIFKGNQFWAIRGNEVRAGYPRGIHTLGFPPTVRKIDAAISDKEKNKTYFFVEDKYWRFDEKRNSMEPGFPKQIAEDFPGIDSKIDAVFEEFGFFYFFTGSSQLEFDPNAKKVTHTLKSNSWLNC
Text: as §1
Recombinant Human CHO Pro-MMP-3: Human CHO pro-stromelysin-257 (pro-MMP-3) was expressed and purified as described by Housley, et al.. J. Biol. Chem. 268, 4481 (1993).
Activation of Pro-MMP-3: Pro-MMP-3 at 1.72 µM (100 µg/mL) in 5 mM Tris at pH 7.5, 5 mM CaCl2, 25 mM NaCl, and 0.005% Brij-35 (MMP-3 activation buffer) was activated by incubation with TPCK (N-tosyl-(L)-phenylalanine chloromethyl ketone) trypsin (1:100 w/w to pro-MMP-3) at 25 °C for 30 min. The reaction was stopped by addition of soybean trypsin inhibitor (SBTI; 5:1 w/w to trypsin concentration). This activation protocol results in the formation of 45 kDa active MMP-3, which still contains the C-terminal portion of the enzyme.
as §2, §3

Chain of MMP-2 (P08253 110-660): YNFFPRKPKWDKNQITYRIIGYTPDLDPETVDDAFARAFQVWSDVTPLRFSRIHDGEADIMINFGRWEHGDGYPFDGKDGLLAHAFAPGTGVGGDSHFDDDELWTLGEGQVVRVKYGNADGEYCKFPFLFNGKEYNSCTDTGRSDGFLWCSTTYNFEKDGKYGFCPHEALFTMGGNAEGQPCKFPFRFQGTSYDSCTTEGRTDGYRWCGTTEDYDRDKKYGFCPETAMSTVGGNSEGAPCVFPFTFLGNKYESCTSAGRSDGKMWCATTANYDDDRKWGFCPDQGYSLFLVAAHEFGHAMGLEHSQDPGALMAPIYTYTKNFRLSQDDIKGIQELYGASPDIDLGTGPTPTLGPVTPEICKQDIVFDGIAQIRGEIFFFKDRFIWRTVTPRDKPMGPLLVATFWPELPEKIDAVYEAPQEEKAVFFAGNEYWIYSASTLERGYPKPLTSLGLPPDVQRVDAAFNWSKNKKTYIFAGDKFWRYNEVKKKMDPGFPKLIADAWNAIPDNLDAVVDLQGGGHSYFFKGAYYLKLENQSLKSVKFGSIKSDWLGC

Row | Structure (SMILES) | IC50 (MMP-2) [nM] | IC50 (MMP-9) [nM] | IC50 (MMP-3) [nM]
1 | O=C(c1ccc(-c2ccc(Cl)cc2)cc1)C1CCC(Cn2nnc3ccccc3c2=O)C1C(=O)O (stereo not drawn) [Example 1, 2-[(4'-chloro[1,1'-biphenyl]-4-yl)carbonyl]-5-[(4-oxo-1,2,3-benzotriazin-3(4H)-yl)methyl]-cyclopentanecarboxylic acid] | 0.39 | 0.34 | 1.7
2 | O=C(CC(CCn1nnc2ccccc2c1=O)C(=O)O)c1ccc(-c2ccc(Cl)cc2)cc1 (stereo not drawn) [Example 19, α-[2-(4'-chloro[1,1'-biphenyl]-4-yl)-2-oxoethyl]-4-oxo-1,2,3,-Benzotriazine-3(4H)-butanoic acid] | 2.4 | 4.7 | 47
3 | CC1=NCC(=O)N(CCC(CC(=O)c2ccc(-c3ccc(Cl)cc3)cc2)C(=O)O)c2ccccc21 (stereo not drawn) [Example 22, α-[2-(4'-chloro[1,1'-biphenyl]-4-yl)-2-oxoethyl]-2,3-dihydro-5-methyl-2-oxo-1H-1,4-benzodiazepine-1-butanoic acid] | 24 | 120 | 140
